Reference: PMC7321065, “Discovery of New Schiff Bases Tethered Pyrazole Moiety: Design, Synthesis, Biological Evaluation, and Molecular Docking Study as Dual Targeting DHFR/DNA Gyrase Inhibitors with Immunomodulatory Activity” (Molecules, 2020)
Values after ≈ are worked out from the molar mass of the structure shown. Read-outs that look alike come from different tables or passages of the source.

Legend:
E. coli ATCC BAA-196 = experiment: MIC/MBC against MDRB, paper disk diffusion; assay type: cell-based; settings: Escherichia coli, ATCCBAA196, E. coli ATCC BAA-196; for MBC: read-out: MBC; for MIC: read-out: MIC
How it was run: (§1)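 Compounds were tested against multidrug-resistant strains, first by agar plate diffusion to measure zone of inhibition, then by paper disk diffusion to determine MIC and MBC.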

S. aureus ATCC 33591 = experiment: MIC/MBC against MDRB, paper disk diffusion; assay type: cell-based; settings: Staphylococcus aureus, ATCC33591, S. aureus ATCC 33591; for MBC: read-out: MBC; for MIC: read-out: MIC
How it was run: as §1

[1] = test system: S. aureus ATCC 43300 (MRSA); experiment: MIC/MBC against MDRB, paper disk diffusion; assay type: cell-based; settings: Staphylococcus aureus, S. aureus ATCC 43300; for MBC: read-out: MBC; for MIC: read-out: MIC
How it was run: as §1

[2] = test system: P. aeruginosa ATCC BAA-2111; experiment: MIC/MBC against MDRB, paper disk diffusion; assay type: cell-based; settings: Pseudomonas aeruginosa, ATCCBAA2111, P. aeruginosa ATCC BAA-2111; for MBC: read-out: MBC; for MIC: read-out: MIC
How it was run: as §1

DHFR E. coli = DHFR E. coli (Escherichia coli, UniProt P0ABQ4); experiment: Dihydrofolate reductase enzyme assay; assay type: biochemical; settings: for Fold potential relative to Trimethoprim (IC50): DHFR
[3] = test system: mammary gland breast cancer cell line (MCF-7); experiment: Antiproliferative activity, MTT assay; assay type: cell-based, human; settings: for IC50: Homo sapiens, MCF7, MTT, 48 h, read-out: IC50 MCF-7; for Fold relative to doxorubicin (IC50): MCF-7
How it was run: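 MTT added for 4 h, formazan dissolved in DMSO, absorbance at 590 nm. Viability relative to untreated cells; IC50 by probit analysis.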

S. aureus DNA Gyrase = S. aureus DNA Gyrase (Staphylococcus aureus, UniProt P0A0K8+P20831); experiment: DNA gyrase enzyme assay; assay type: biochemical; settings: Mean ± SEM
B. subtilis DNA Gyrase = B. subtilis DNA Gyrase (Bacillus subtilis, UniProt P05652+P05653); experiment: DNA gyrase enzyme assay; assay type: biochemical; settings: Mean ± SEM
Pseudomonas aeruginosa = experiment: MIC/MBC, paper disk diffusion; assay type: cell-based; settings: P. aeruginosa; for MBC / MIC: Pseudomonas aeruginosa; for MBC: read-out: MBC; for MIC: read-out: MIC
How it was run: (§2)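 MIC and MBC were obtained by paper disk diffusion, bacteria grown on nutrient agar and fungi/yeast on Sabouraud agar. MIC is the lowest concentration inhibiting growth.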

Bacillus subtilis = experiment: MIC/MBC, paper disk diffusion; assay type: cell-based; settings: B. subtilis; for MBC: read-out: MBC
How it was run: as §2

Escherichia coli = experiment: MIC/MBC, paper disk diffusion; assay type: cell-based; settings: E. coli; for MBC / MIC: Escherichia coli; for MBC: read-out: MBC; for MIC: read-out: MIC
How it was run: as §2

Salmonella typhi [4] = experiment: MIC/MBC, paper disk diffusion; assay type: cell-based; settings: Salmonella enterica, S. typhi; for MBC: read-out: MBC
How it was run: as §2

Enterococcus faecalis = experiment: MIC/MBC, paper disk diffusion; assay type: cell-based; settings: E. faecalis; for MBC: read-out: MBC; for MIC: read-out: MIC
How it was run: as §2

Staphylococcus aureus [5] = experiment: MIC/MBC, paper disk diffusion; assay type: cell-based; settings: Staphylococcus aureus, S. aureus; for MBC: read-out: MBC; for MIC: read-out: MIC
How it was run: as §2

Candida albicans = experiment: Inhibition zone, agar plate diffusion; assay type: cell-based; settings: Ca, mm ± standard deviation, sample at 0.5 mg/mL, read-out: Inhibition zone (IZ)
How it was run: (§3)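 Compounds in DMSO, with DMSO as negative control, were tested at 0.5 mg/mL in agar wells cut 10 mm wide.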

Fusarium oxysporum = experiment: Inhibition zone, agar plate diffusion; assay type: cell-based; settings: Fo, mm ± standard deviation, sample at 0.5 mg/mL, read-out: Inhibition zone (IZ)
How it was run: as §3

Salmonella typhi [6] = experiment: Inhibition zone, agar plate diffusion; assay type: cell-based; settings: Salmonella enterica, St, mm ± standard deviation, sample at 0.5 mg/mL, read-out: Inhibition zone (IZ)
How it was run: as §3

Staphylococcus aureus [7] = experiment: Inhibition zone, agar plate diffusion; assay type: cell-based; settings: Sa, mm ± standard deviation, sample at 0.5 mg/mL, read-out: Inhibition zone (IZ)
How it was run: as §3

[8] = test system: S. aureus ATCC 43300 (MRSA); experiment: Inhibition zone against MDRB, agar plate diffusion; assay type: cell-based
[9] = Bacillus subtilis, read-out: MIC

| Compound | MBC (E. coli ATCC BAA-196) [µg/mL] | MIC (E. coli ATCC BAA-196) [µg/mL] | MBC (S. aureus ATCC 33591) [µg/mL] | MIC (S. aureus ATCC 33591) [µg/mL] | MBC [1] [µg/mL] | MIC [1] [µg/mL] | MBC [2] [µg/mL] | MIC [2] [µg/mL] | IC50 (DHFR E. coli) [µM] | Fold potential relative to Trimethoprim (IC50) (DHFR E. coli) [fold] | IC50 [3] [µM] | Fold relative to doxorubicin (IC50) [3] [fold] | IC50 (S. aureus DNA Gyrase) [µM] | IC50 (B. subtilis DNA Gyrase) [µM] | MBC (Pseudomonas aeruginosa) [µg/mL] | MIC (Pseudomonas aeruginosa) [µg/mL] | MBC (Bacillus subtilis; Bacillus subtilis) [µg/mL] | MIC (Bacillus subtilis; [9]) [µg/mL] | MBC (Escherichia coli) [µg/mL] | MIC (Escherichia coli) [µg/mL] | other results |
| --- | --- | --- | --- | --- | --- | --- | --- | --- | --- | --- | --- | --- | --- | --- | --- | --- | --- | --- | --- | --- | --- |
| COc1ccc(Nc2n[nH]c(N=Cc3ccc(N4CCCCC4)cc3)c2C(N)=O)cc1 [8a, 3-(p-Methoxyphenylamino)-5-(4-(piperidin-1-yl)benzylideneamino)-1H-pyrazole-4-carboxamide] | 3.9 (≈ 9.32 µM) | 1.95 (≈ 4.66 µM) | 7.8 (≈ 18.6 µM) | 3.9 (≈ 9.32 µM) | 3.9 (≈ 9.32 µM) | 1.95 (≈ 4.66 µM) | 7.8 (≈ 18.6 µM) | 3.9 (≈ 9.32 µM) | 3.98 ± 0.61 | 1.3 | 1.98 ± 1.55 | 0.979 | 7.69 ± 0.23 | 15.3 ± 0.5 | 10.6 (≈ 25.3 µM) | 5.57 (≈ 13.3 µM) | 3.9 (≈ 9.32 µM) | 1.92 (≈ 4.59 µM) | 1.94 (≈ 4.64 µM) | 0.97 (≈ 2.32 µM) | Fold more than Tetracycline (MIC) (Pseudomonas aeruginosa): 11.2 fold; MIC (Bacillus subtilis): 1.95 µg/mL (≈ 4.66 µM); Fold more than Tetracycline (MIC) (Escherichia coli): 16 fold; MIC (Salmonella typhi [4]): 7.81 µg/mL (≈ 18.7 µM); MBC (Salmonella typhi [4]): 12.5 µg/mL (≈ 29.8 µM); MBC (Enterococcus faecalis): 6.63 µg/mL (≈ 15.8 µM); MIC (Enterococcus faecalis): 3.9 µg/mL (≈ 9.32 µM); MBC (Staphylococcus aureus [5]): 5.57 µg/mL (≈ 13.3 µM); MIC (Staphylococcus aureus [5]): 5.57 µg/mL (≈ 13.3 µM); zone of inhibition at 500 µg/mL (Candida albicans): 24 ± 0.3 mm; zone of inhibition at 500 µg/mL (Fusarium oxysporum): 20 ± 0.82 mm; zone of inhibition at 500 µg/mL (Salmonella typhi [6]): 23 ± 0.11 mm; zone of inhibition at 500 µg/mL (Staphylococcus aureus [7]): 26 ± 0.14 mm; Mean Diameter of Inhibition Zone against MDRB [8]: 26 ± 0.15 mm |
| COc1ccc(Nc2n[nH]c(N=Cc3cc(OC)c(OC)c(OC)c3)c2C(=O)Nc2ccccc2)cc1 [9b, 3-(p-Methoxyphenylamino)-N-phenyl-5-(3,4,5-trimethoxybenzylideneamino)-1H-pyrazole-4-carboxamide] | 11.9 (≈ 23.7 µM) | 6.25 (≈ 12.5 µM) | 3.31 (≈ 6.6 µM) | 1.95 (≈ 3.89 µM) | 4.5 (≈ 8.97 µM) | 2.5 (≈ 4.98 µM) | 9.88 (≈ 19.7 µM) | 5.2 (≈ 10.4 µM) | 6.48 ± 0.33 | 0.80 | 2.21 ± 0.36 | 0.877 | 10.5 ± 0.55 | 14.2 ± 0.42 | 31.2 (≈ 62.3 µM) | 15.6 (≈ 31.1 µM) | 9.2 (≈ 18.3 µM) | 4.5 (≈ 8.97 µM) | 14.1 (≈ 28 µM) | 7.81 (≈ 15.6 µM) | Fold more potent than Tetracycline (MIC) (Bacillus subtilis): 6 fold; MIC (Salmonella typhi [4]): 5.57 µg/mL (≈ 11.1 µM); MBC (Salmonella typhi [4]): 10.6 µg/mL (≈ 21.1 µM); MBC (Enterococcus faecalis): 7.41 µg/mL (≈ 14.8 µM); MIC (Enterococcus faecalis): 3.9 µg/mL (≈ 7.78 µM); MBC (Staphylococcus aureus [5]): 15.6 µg/mL (≈ 31.1 µM); MIC (Staphylococcus aureus [5]): 7.81 µg/mL (≈ 15.6 µM); zone of inhibition at 500 µg/mL (Candida albicans): 19 ± 0.25 mm; zone of inhibition at 500 µg/mL (Fusarium oxysporum): 17 ± 0.5 mm; zone of inhibition at 500 µg/mL (Salmonella typhi [6]): 23 ± 0.4 mm; zone of inhibition at 500 µg/mL (Staphylococcus aureus [7]): 21 ± 0.3 mm; Mean Diameter of Inhibition Zone against MDRB [8]: 24 ± 0.65 mm |
